Reference: publication PMC4941342, “Proteasomal degradation of sphingosine kinase 1 and inhibition of dihydroceramide desaturase by the sphingosine kinase inhibitors, SKi or ABC294640, induces growth arrest in androgen-independent LNCaP-AI prostate cancer cells” (Oncotarget, 2016)

Biological target: T1, dihydroceramide desaturase (Des1) (Homo sapiens, UniProt O15121)
T1 construct: gene DEGS1
T1 sequence (O15121 2-323): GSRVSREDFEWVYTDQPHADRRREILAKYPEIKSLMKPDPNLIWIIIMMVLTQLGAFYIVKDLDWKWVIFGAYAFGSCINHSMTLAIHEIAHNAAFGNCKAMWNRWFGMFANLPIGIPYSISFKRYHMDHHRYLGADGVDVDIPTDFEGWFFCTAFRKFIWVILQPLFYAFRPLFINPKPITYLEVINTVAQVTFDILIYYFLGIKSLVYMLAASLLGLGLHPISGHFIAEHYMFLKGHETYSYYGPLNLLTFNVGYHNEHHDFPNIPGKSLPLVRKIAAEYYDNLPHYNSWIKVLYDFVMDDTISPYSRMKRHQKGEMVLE
Test: Des1 activity in intact Jurkat cells labeled with DhCer-C6-NBD, HPLC with fluorescence detection
Assay type: cell-based

| Compound | IC50 [µM] |
| --- | --- |
| O=C(NCc1ccncc1)C12CC3CC(C1)CC(c1ccc(Cl)cc1)(C3)C2 [ABC294640, 3-(4-chlorophenyl)-adamantane-1-carboxylic acid (pyridin-4-ylmethyl)amide] | 10.2 |
| Oc1ccc(Nc2nc(-c3ccc(Cl)cc3)cs2)cc1 [SKi, 2-(p-hydroxyanilino)-4-(p-chlorophenyl)thiazole] | 0.63 to 0.69 |
